18 compounds from patent US9388148B2, “Acylaminocycloalkyl compounds suitable for treating disorders that respond to modulation of dopamine D3 receptor” (AbbVie Deutschland GmbH & Co. KG, priority 2013, dated 2016) can be followed below.

In series [1] the target is T1, human dopamine D2L receptors (long isoform) (Homo sapiens, UniProt P14416).
T1 construct: expressed in transfected cells; host or cells: HEK-293
Description: Dopamine D2L receptor binding ([125I]iodospiperone displacement). The following applies: selectivity ratio, human D2L vs human D3 binding. The protocol: The substance to be tested was either dissolved in methanol/Chremophor® (BASF SE) or in dimethyl sulfoxide and then diluted with water to the desired concentration.
Each assay mixture was run in triplicate. • The incubation buffer contained 50 mM tris, 120 mM NaCl, 5 mM KCl, 2 mM CaCl2, 2 mM MgCl2 and 0.1% bovine serum albumin, 10 μM quinolone and 0.1% ascorbic acid (prepared fresh daily). […] Each assay mixture was run in triplicate. • The incubation buffer contained 50 mM tris, 120 mM NaCl, 5 mM KCl, 2 mM CaCl2, 2 mM MgCl2 and 0.1% bovine serum albumin. The buffer was adjusted to pH 7.4 with HCl. c) Measurement and analysis: • After having been incubated at 25° C. for 60 minutes, the assay mixtures were filtered through a Whatman GF/B glass fiber filter under vacuum using a cell col-lecting device. The filters were transferred to scintillation viols using a filter transfer system. After 4 ml of Ultima Gold® (Packard) have been added, the samples were shaken for one hour and the radioactivity was then counted in a Beta-Counter (Packard, Tricarb 2000 or 2200CA).

The nature of series [2]: Determination of the microsomal half-life / microsomal clearance. Type of series: in vitro ADME. The following applies: pH 7.4; human liver microsomes, 0.5 μM test substance, 0.25 mg protein/ml, NADPH, 37° C.; read-out: Human mCl (mikrosomal clearance). How it is done:
The metabolic stability of the compounds of the invention was determined in the following assay.
The test substances were incubated in a concentration of 0.5 μM as follows:
0.5 μM test substance are preincubated together with liver microsomes from different species (from rat, human or other species) (0.25 mg of microsomal protein/ml) in 0.05 M potassium phosphate buffer of pH 7.4 in microtiter plates at 37° C. for 5 min. The reaction is started by adding NADPH (1 mg/mL). After 0, 5, 10, 15, 20 and 30 min, 50 μl aliquots are removed, and the reaction is immediately stopped and cooled with the same volume of acetonitrile. The samples are frozen until analyzed. The remaining concentration of undegraded test substance is determined by MSMS. The half-life (T1/2) is determined from the gradient of the signal of test substance/unit time plot, it being possible to calculate the half-life of the test substance, assuming first order kinetics, from the decrease in the concentration of the compound with time. The microsomal clearance (mC1) is calculated from mC1=1n2/T1/2/(content of microsomal protein in mg/ml)×1000 [ml/min/mg] (modified from references: Di, The Society for Biomoleculur Screening, 2003, 453-462; Obach, DMD, 1999 vol 27. N 11, 1350-1359).
(In general: Liver microsomes are vesicles of endoplasmic reticulum, rich in cytochrome P450 enzymes.)

The structures appear in SMILES notation.

T1 sequence (P14416 whole entry, canonical isoform): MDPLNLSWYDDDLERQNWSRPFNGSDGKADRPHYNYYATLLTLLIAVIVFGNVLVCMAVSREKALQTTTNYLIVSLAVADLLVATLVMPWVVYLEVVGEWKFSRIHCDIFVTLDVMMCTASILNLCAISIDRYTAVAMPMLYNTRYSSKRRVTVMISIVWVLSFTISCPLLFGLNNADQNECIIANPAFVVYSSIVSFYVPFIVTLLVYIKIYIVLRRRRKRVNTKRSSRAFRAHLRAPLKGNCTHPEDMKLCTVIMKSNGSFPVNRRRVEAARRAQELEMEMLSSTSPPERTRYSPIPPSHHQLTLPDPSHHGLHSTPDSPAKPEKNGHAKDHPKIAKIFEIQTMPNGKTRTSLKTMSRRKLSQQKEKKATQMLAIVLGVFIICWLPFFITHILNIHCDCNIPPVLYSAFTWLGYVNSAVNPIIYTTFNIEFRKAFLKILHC

Regarding `COCCc1cc(N2CCN(CC[C@H]3C[C@H](NC(=O)C4CCC(O)CC4)C3)CC2)nc(C(C)(C)C)n1` (relative stereo) [Compound 11, N-[trans-3-[2-[4-[2-tert-butyl-6-(2-methoxyethyl)pyrimidin-4-yl]piperazin-1-yl]ethyl]cyclobutyl]-4-hydroxy-cyclohexanecarboxamide], the “D2/D3, Ki (D2L)/Ki (D3)” value in series [1] is reported as “++ (++ >20)”. Further, in series [2], the microsomal CLint at 0.5 μM lay within 20 to 120 µL/min/mg.
As for `CC(C)(C)c1nc(C2CCC2)cc(N2CCN(CC[C@H]3CC[C@H](NC(=O)C4CC(O)(C(F)(F)F)C4)CC3)CC2)n1` (relative stereo) [Compound 19, N-[trans-4-[2-[4-(2-tert-butyl-6-cyclobutyl-pyrimidin-4-yl)piperazin-1-yl]ethyl]cyclohexyl]-3-hydroxy-3-(trifluoromethyl)cyclobutanecarboxamide], the “D2/D3, Ki (D2L)/Ki (D3)” value in series [1] is “+ (+ >10)”. In addition, the microsomal CLint at 0.5 μM in series [2] fell in the range of 20 to 120 µL/min/mg.
As to `COCCc1cc(N2CCN(CC[C@H]3CC[C@H](NC(=O)C4CC(O)(C(F)(F)F)C4)CC3)CC2)nc(C(C)(C)C)n1` (relative stereo) [Compound 25, N-[trans-4-[2-[4-[2-tert-butyl-6-(2-methoxyethyl)pyrimidin-4-yl]piperazin-1-yl]ethyl]cyclohexyl]-3-hydroxy-3-(trifluoromethyl)cyclobutanecarboxamide], the “D2/D3, Ki (D2L)/Ki (D3)” value in series [1] is recorded as “++ (++ >20)”. Besides, the microsomal CLint at 0.5 μM in series [2] is over 120 µL/min/mg.
For `COCCc1cc(N2CCN(CC[C@H]3CC[C@@H](NC(=O)C4CC(O)(C(F)(F)F)C4)CC3)CC2)nc(C(C)(C)C)n1` (relative stereo) [Compound 26, N-[cis-4-[2-[4-[2-tert-butyl-6-(2-methoxyethyl)pyrimidin-4-yl]piperazin-1-yl]ethyl]cyclohexyl]-3-hydroxy-3-(trifluoromethyl)cyclobutanecarboxamide], in that order: “+++ (+++ >50)” and under 20 µL/min/mg.
As to `CC(C)(C)c1nc(C2CCC2)cc(N2CCN(CC[C@H]3CC[C@H](NC(=O)[C@H]4CC[C@H](O)CC4)CC3)CC2)n1` [Compound 1, trans-N-[trans-4-[2-[4-(2-tert-butyl-6-cyclobutyl-pyrimidin-4-yl)piperazin-1-yl]ethyl]cyclohexyl]-4-hydroxy-cyclohexanecarboxamide], the “D2/D3, Ki (D2L)/Ki (D3)” value in series [1] is “+++ (+++ >50)”. Besides, the microsomal CLint at 0.5 μM in series [2] lay in the range of 20 to 120 µL/min/mg.
For `COCCc1cc(N2CCN(CC[C@H]3CC[C@H](NC(=O)[C@H]4CC[C@H](O)CC4)CC3)CC2)nc(C(C)(C)C)n1` [Compound 2, trans-N-[trans-4-[2-[4-[2-tert-butyl-6-(2-methoxyethyl)pyrimidin-4-yl]piperazin-1-yl]ethyl]cyclohexyl]-4-hydroxy-cyclohexanecarboxamide], in that order: “++ (++ >20)” and 20 to 120 µL/min/mg.
As to `COCCc1cc(N2CCN(CC[C@H]3CC[C@@H](NC(=O)[C@H]4CC[C@H](O)CC4)CC3)CC2)nc(C(C)(C)C)n1` [Compound 3, trans-N-[cis-4-[2-[4-[2-tert-butyl-6-(2-methoxyethyl)pyrimidin-4-yl]piperazin-1-yl]ethyl]cyclohexyl]-4-hydroxy-cyclohexanecarboxamide], the “D2/D3, Ki (D2L)/Ki (D3)” value in series [1] was “++ (++ >20)”. For the same compound, in series [2], the microsomal CLint at 0.5 μM was in the range of 20 to 120 µL/min/mg.
For `COCCc1cc(N2CCN(CC[C@H]3CC[C@H](NC(=O)[C@H]4CC[C@@H](O)CC4)CC3)CC2)nc(C(C)(C)C)n1` [Compound 4, cis-N-[trans-4-[2-[4-[2-tert-butyl-6-(2-methoxyethyl)pyrimidin-4-yl]piperazin-1-yl]ethyl]cyclohexyl]-4-hydroxy-cyclohexanecarboxamide], in that order: “++ (++ >20)” and over 120 µL/min/mg.
For `COCCc1cc(N2CCN(CC[C@H]3CC[C@@H](NC(=O)[C@H]4CC[C@@H](O)CC4)CC3)CC2)nc(C(C)(C)C)n1` [Compound 5, Cis-N-[cis-4-[2-[4-[2-tert-butyl-6-(2-methoxyethyl)pyrimidin-4-yl]piperazin-1-yl]ethyl]cyclohexyl]-4-hydroxy-cyclohexanecarboxamide], in that order: “++ (++ >20)” and over 120 µL/min/mg.
For `CC(C)(C)c1nc(C2CCC2)cc(N2CCN(CC[C@H]3CC[C@@H](NC(=O)[C@H]4CC[C@H](O)CC4)CC3)CC2)n1` [Compound 6, trans-N-[cis-4-[2-[4-(2-tert-butyl-6-cyclobutyl-pyrimidin-4-yl)piperazin-1-yl]ethyl]cyclohexyl]-4-hydroxy-cyclohexanecarboxamide], in that order: “+++ (+++ >50)” and 20 to 120 µL/min/mg.
As for `COCCc1cc(N2CCN(CC[C@H]3C[C@H](NC(=O)[C@H]4CC[C@H](O)CC4)C3)CC2)nc(C(C)(C)C)n1.O=C(O)C(F)(F)F` [Compound 7, Trans-N-[trans-3-[2-[4-[2-tert-butyl-6-(2-methoxyethyl)pyrimidin-4-yl]piperazin-1-yl]ethyl]cyclobutyl]-4-hydroxy-cyclohexanecarboxamide; 2,2,2-trifluoroacetic acid], the “D2/D3, Ki (D2L)/Ki (D3)” value in series [1] was “+++ (+++ >50)”. Also, the microsomal CLint at 0.5 μM in series [2] lay within 20 to 120 µL/min/mg.
For `COCCc1cc(N2CCN(CC[C@H]3C[C@@H](NC(=O)[C@H]4CC[C@H](O)CC4)C3)CC2)nc(C(C)(C)C)n1.O=C(O)C(F)(F)F` [Compound 8, trans-N-[cis-3-[2-[4-[2-tert-butyl-6-(2-methoxyethyl)pyrimidin-4-yl]piperazin-1-yl]ethyl]cyclobutyl]-4-hydroxy-cyclohexanecarboxamide; 2,2,2-trifluoroacetic acid], in that order: “+++ (+++ >50)” and 20 to 120 µL/min/mg.
The like results for `CC(C)(C)c1nc(C2CCC2)cc(N2CCN(CC[C@H]3C[C@H](NC(=O)[C@H]4CC[C@H](O)CC4)C3)CC2)n1` [Compound 9, Trans-N-[trans-3-[2-[4-(2-tert-butyl-6-cyclobutyl-pyrimidin-4-yl)piperazin-1-yl]ethyl]cyclobutyl]-4-hydroxy-cyclohexanecarboxamide] were, in that order, “+++ (+++ >50)” and 20 to 120 µL/min/mg.
The like results for `CC(C)(C)c1nc(C2CCC2)cc(N2CCN(CC[C@H]3C[C@@H](NC(=O)[C@H]4CC[C@H](O)CC4)C3)CC2)n1` [Compound 10, Trans-N-[cis-3-[2-[4-(2-tert-butyl-6-cyclobutyl-pyrimidin-4-yl)piperazin-1-yl]ethyl]cyclobutyl]-4-hydroxy-cyclohexanecarboxamide] were, in that order, “+++ (+++ >50)” and 20 to 120 µL/min/mg.
In the case of `COCCc1cc(N2CCN(CC[C@H]3C[C@@H](NC(=O)[C@H]4CC[C@@H](O)CC4)C3)CC2)nc(C(C)(C)C)n1` [Compound 12, Cis-N-[cis-3-[2-[4-[2-tert-butyl-6-(2-methoxyethyl)pyrimidin-4-yl]piperazin-1-yl]ethyl]cyclobutyl]-4-hydroxy-cyclohexanecarboxamide], the “D2/D3, Ki (D2L)/Ki (D3)” value in series [1] was “+++ (+++ >50)”. Further, in series [2], the microsomal CLint at 0.5 μM lay in the range of 20 to 120 µL/min/mg.
For `CC(C)(C)c1nc(C2CCC2)cc(N2CCN(CC[C@H]3CC[C@H](NC(=O)[C@H]4C[C@@H](O)C4)CC3)CC2)n1` [Compound 13, Cis-N-[trans-4-[2-[4-(2-tert-butyl-6-cyclobutyl-pyrimidin-4-yl)piperazin-1-yl]ethyl]cyclohexyl]-3-hydroxy-cyclobutanecarboxamide], in that order: “++ (++ >20)” and over 120 µL/min/mg.
As for `CC(C)(C)c1nc(C2CCC2)cc(N2CCN(CC[C@H]3CC[C@H](NC(=O)[C@H]4CC[C@@H](O)CC4)CC3)CC2)n1.O=C(O)C(F)(F)F` [Compound 14, Cis-N-[trans-4-[2-[4-(2-tert-butyl-6-cyclobutyl-pyrimidin-4-yl)piperazin-1-yl]ethyl]cyclohexyl]-4-hydroxy-cyclohexanecarboxamide; 2,2,2-trifluoroacetic acid], the “D2/D3, Ki (D2L)/Ki (D3)” value in series [1] is “++ (++ >20)”. Moreover, in series [2], the microsomal CLint at 0.5 μM is over 120 µL/min/mg.
For `COCc1cc(N2CCN(CC[C@H]3CC[C@H](NC(=O)[C@H]4C[C@@H](O)C4)CC3)CC2)nc(C(C)(C)C)n1` [Compound 40, cis-N-[trans-4-[2-[4-[2-tert-butyl-6-(methoxymethyl)pyrimidin-4-yl]piperazin-1-yl]ethyl]cyclohexyl]-3-hydroxy-cyclobutanecarboxamide], in series [2], the microsomal CLint at 0.5 μM fell in the range of 20 to 120 µL/min/mg.
